Laboratory results taken from patent US11279733B2, “Peptide antibiotics” (priority 2017, dated 2022).
≈ marks a conversion by molar mass, not a printed value. Where two headings read alike, the source gives them in different places. Positions of bridges follow the written chain, without caps; N, C: chain ends. Non-standard residues stand in square brackets, D forms with d. Residues, ends and D or L forms follow the SMILES beside them. *: point of attachment. Isonicotinoyl(2-Ph) = O=C(c1ccnc(-c2ccccc2)c1)*; Decanoyl(3R-OH) = CCCCCCC[C@@H](O)CC(=O)*; X11 = CCCCCCCNc1ccc(C(=O)*)cc1; X9 = CCCCCC1CCC(C(=O)*)CC1; dDab = NCC[C@@H](N)C(=O)O; Octanoyl = CCCCCCCC(=O)*; Dab = NCC[C@H](N)C(=O)O

What was measured:
[1] = system: K. pneumoniae ATCC BAA-2146, NDM-1 pos; conditions: ATCC BAA-2146
In short: (§1)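 Mid-log cultures grown in Mueller Hinton broth at 37° C were tested by 2-fold broth microdilution at 5×10^5 CFU/mL final. Compounds were dissolved in water and tested over a final range of 32 to 0.015 μg/mL.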

[2] = system: P. aeruginosa GN_105, PmxR; conditions: GN 105, PmxR
In short: as §1

[3] = system: S. aureus ATCC 25923, MSSA; conditions: ATCC 25923
In short: as §1

[4] = system: K. pneumoniae GN_106, PmxR; conditions: GN 106, PmxR
In short: as §1

[5] = system: K. pneumoniae ATCC 700603, MDR; conditions: ATCC 700603
In short: as §1

[6] = system: P. aeruginosa GN_043, PmxR
In short: as §1

E. coli ATCC 25922 = conditions: ATCC 25922
In short: as §1

K. pneumoniae ATCC 13883 = conditions: ATCC 13883
In short: as §1

P. aeruginosa ATCC 27853 = conditions: ATCC 27853
In short: as §1

[7] = system: K. pneumoniae GN_102 PmxR; conditions: GN 102 PmxR
In short: as §1

A. baumannii ATCC 19606 = conditions: ATCC 19606
In short: as §1

A. baumannii GN_093 PmxR = conditions: GN 093 PmxR
In short: as §1

in vitro = conditions: human
In short: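 HK2 cells were seeded at 2000 per well in DMEM/F12 with 10% FBS and left to attach for 24 h at 37 °C, 5% CO2. They were then exposed for 24 h to 3-fold peptide dilutions starting from 600 μM solutions in quadruplicate. LDH release was read at 450 nm, and CC50 was fitted from dose-response curves.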

| SMILES | MIC K. pneumoniae ATCC BAA-2146, NDM-1 pos [1] | MIC P. aeruginosa GN_105, PmxR [2] | MIC S. aureus ATCC 25923, MSSA [3] | MIC K. pneumoniae GN_106, PmxR [4] | MIC K. pneumoniae ATCC 700603, MDR [5] | MIC P. aeruginosa GN_043, PmxR ([6]; P. aeruginosa GN_043, PmxR) | MIC E. coli ATCC 25922 (E. coli ATCC 25922) | MIC K. pneumoniae ATCC 13883 (K. pneumoniae ATCC 13883) | MIC P. aeruginosa ATCC 27853 (P. aeruginosa ATCC 27853) | MIC K. pneumoniae GN_102 PmxR [7] | MIC A. baumannii ATCC 19606 (A. baumannii ATCC 19606) | MIC A. baumannii GN_093 PmxR (A. baumannii GN_093 PmxR) | CC50 at 24 h (in vitro) | MIC P. aeruginosa GN_043, PmxR ([6]; polymyxin-resistant) |
| --- | --- | --- | --- | --- | --- | --- | --- | --- | --- | --- | --- | --- | --- | --- |
| CCCCCCCC(=O)N[C@H](CCN)C(=O)N[C@H]1CCNC(=O)[C@H]([C@@H](C)O)NC(=O)[C@H](CCN)NC(=O)[C@H](CCN)NC(=O)[C@H](CC(C)C)NC(=O)[C@@H](Cc2ccccc2)NC(=O)[C@H](CCN)NC1=O [compound 6399, nC7CO-D-Dab-cyc[L-Dab-L-Dab-D-Phe-L-Leu-L-Dab-L-Dab-L-Thr]] (Octanoyl-[dDab][Dab][Dab][dF]L[Dab][Dab]T; lactam 2-C) | >32 µg/mL | >32 µg/mL | >32 µg/mL | >32 µg/mL | 16 µg/mL (≈ 16.2 µM) | 8 µg/mL (≈ 8.1 µM) | 8 µg/mL (≈ 8.1 µM) | >32 µg/mL | 1 µg/mL (≈ 1.01 µM) | >32 µg/mL | >32 µg/mL | >32 µg/mL | > 300 µM | – |
| CCCCCCCNc1ccc(C(=O)N[C@H](CCN)C(=O)N[C@H]2CCNC(=O)[C@H]([C@@H](C)O)NC(=O)[C@H](CCN)NC(=O)[C@H](CCN)NC(=O)[C@H](CC(C)C)NC(=O)[C@@H](Cc3ccccc3)NC(=O)[C@H](CCN)NC2=O)cc1 [compound 6403, 4(C7H15NH)PheCO-D-Dab-cyc[L-Dab-L-Dab-D-Phe-L-Leu-L-Dab-L-Dab-L-Thr]] (X11-[dDab][Dab][Dab][dF]L[Dab][Dab]T; lactam 2-C) | >64 µg/mL | >32 µg/mL | >32 µg/mL | >32 µg/mL | >64 µg/mL | 32 µg/mL (≈ 29.6 µM) | >64 µg/mL | >64 µg/mL | 16 µg/mL (≈ 14.8 µM) | >32 µg/mL | >64 µg/mL | >32 µg/mL | > 300 µM | – |
| CCCCCC1CCC(C(=O)N[C@H](CCN)C(=O)N[C@H]2CCNC(=O)[C@H]([C@@H](C)O)NC(=O)[C@H](CCN)NC(=O)[C@H](CCN)NC(=O)[C@H](CC(C)C)NC(=O)[C@@H](Cc3ccccc3)NC(=O)[C@H](CCN)NC2=O)CC1 (stereo partly drawn) [compound 6404, C11H21CO-D-Dab-cyc[L-Dab-L-Dab-D-Phe-L-Leu-L-Dab-L-Dab-L-Thr]] (X9-[dDab][Dab][Dab][dF]L[Dab][Dab]T; lactam 2-C) | 1 µg/mL (≈ 0.959 µM) | 8 µg/mL (≈ 7.68 µM) | 8 µg/mL (≈ 7.68 µM) | >32 µg/mL | 0.5 µg/mL (≈ 0.48 µM) | 32 µg/mL (≈ 30.7 µM) | 1 µg/mL (≈ 0.959 µM) | 16 µg/mL (≈ 15.4 µM) | 0.25 µg/mL (≈ 0.24 µM) | >32 µg/mL | 64 µg/mL (≈ 61.4 µM) | >32 µg/mL | 38 µM | – |
| CC(C)C[C@@H]1NC(=O)[C@@H](Cc2ccccc2)NC(=O)[C@H](CCN)NC(=O)[C@@H](NC(=O)[C@@H](CCN)NC(=O)c2ccnc(-c3ccccc3)c2)CCNC(=O)[C@H]([C@@H](C)O)NC(=O)[C@H](CCN)NC(=O)[C@H](CCN)NC1=O [compound 6405, 3Phe4-PyCO-D-Dab-cyc[L-Dab-L-Dab-D-Phe-L-Leu-L-Dab-L-Dab-L-Thr]] ({Isonicotinoyl(2-Ph)}-[dDab][Dab][Dab][dF]L[Dab][Dab]T; lactam 2-C) | >64 µg/mL | >32 µg/mL | >32 µg/mL | >32 µg/mL | >64 µg/mL | >32 µg/mL | >64 µg/mL | >64 µg/mL | 8 µg/mL (≈ 7.67 µM) | >32 µg/mL | >64 µg/mL | >32 µg/mL | > 300 µM | – |
| CCCCCCC[C@@H](O)CC(=O)N[C@H](CCN)C(=O)N[C@H]1CCNC(=O)[C@H](CCCNC(=N)N)NC(=O)[C@H](CCN)NC(=O)[C@H](CCN)NC(=O)[C@H](CC(C)C)NC(=O)[C@@H](Cc2ccccc2)NC(=O)[C@H](CCN)NC1=O [compound 6508, 3(R)OH-nC9CO-D-Dab-cyc[L-Dab-L-Dab-D-Phe-L-Leu-L-Dab-L-Dab-L-Arg]] ({Decanoyl(3R-OH)}-[dDab][Dab][Dab][dF]L[Dab][Dab]R; lactam 2-C) | >64 µg/mL | 32 µg/mL (≈ 29.4 µM) | >32 µg/mL | >32 µg/mL | 16 µg/mL (≈ 14.7 µM) | – | 16 µg/mL (≈ 14.7 µM) | >64 µg/mL | 2 µg/mL (≈ 1.84 µM) | >32 µg/mL | >64 µg/mL | >32 µg/mL | 142 µM | >32 µg/mL |
| CCCCCCC[C@@H](O)CC(=O)N[C@H](CCN)C(=O)N[C@H]1CCNC(=O)[C@H](CO)NC(=O)[C@H](CCN)NC(=O)[C@H](CCN)NC(=O)[C@H](CC(C)C)NC(=O)[C@@H](Cc2ccccc2)NC(=O)[C@H](CCN)NC1=O [compound 6510, 3(R)OH-nC9CO-D-Dab-cyc[L-Dab-L-Dab-D-Phe-L-Leu-L-Dab-L-Dab-L-Ser]] ({Decanoyl(3R-OH)}-[dDab][Dab][Dab][dF]L[Dab][Dab]S; lactam 2-C) | 4 µg/mL (≈ 3.93 µM) | 16 µg/mL (≈ 15.7 µM) | >64 µg/mL | >32 µg/mL | 4 µg/mL (≈ 3.93 µM) | – | 1 µg/mL (≈ 0.982 µM) | 64 µg/mL (≈ 62.9 µM) | 1 µg/mL (≈ 0.982 µM) | >32 µg/mL | >64 µg/mL | >32 µg/mL | 149 µM | 1 µg/mL (≈ 0.982 µM) |
